Experimental data from patent US20250098679A1, “HERBICIDAL PYRIDONE DERIVATIVES” (SYNGENTA CROP PROTECTION AG, priority 2021, published 2025).

Assays:
Type in all cases: in vivo
Details in all cases: evaluated after 13 days
Setaria faberi (SETFA) [1] = assay: Pre-emergence Test, Setaria faberi (SETFA)
[2] = tested on: Echinochloa crus-galli (ECHCG); assay: Pre-emergence Test, Echinochloa crus-galli (ECHCG)
Zea mays (ZEAMX) [3] = assay: Pre-emergence Test, Zea mays (ZEAMX)
[4] = tested on: Ipomoea hederacea (IPOHE); assay: Pre-emergence Test, Ipomoea hederacea (IPOHE)
[5] = tested on: Amaranthus palmeri (AMAPA); assay: Pre-emergence Test, Amaranthus palmeri (AMAPA)
[6] = tested on: Amaranthus retoflexus (AMARE); assay: Pre-emergence Test, Amaranthus retoflexus (AMARE)
Setaria faberi (SETFA) [7] = assay: Post-emergence Test, Setaria faberi (SETFA); set-up: key to percentage damage caused to the plant, SETFA (five-point scale): 5=81-100%, 4=61-80%, 3=41-60%, 2=21-40%, 1=0-20% damage
Procedure, shortened: (§1)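 Sown pots in a glasshouse (24/16 °C day/night, 14 h light, 65% humidity) were sprayed with compound in acetone/water (50:50) with 0.5% Tween 20, at 1000 g/ha unless otherwise stated. Damage was assessed 13 days after spraying and scored 1–5 (5=81-100%, 1=0-20%).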

[8] = tested on: Echinochloa crus-galli (ECHCG); assay: Post-emergence Test, Echinochloa crus-galli (ECHCG); set-up: key to percentage damage caused to the plant, ECHCG (five-point scale): 5=81-100%, 4=61-80%, 3=41-60%, 2=21-40%, 1=0-20% damage
Procedure, shortened: as §1

Zea mays (ZEAMX) [9] = assay: Post-emergence Test, Zea mays (ZEAMX); set-up: key to percentage damage caused to the plant, ZEAMX (five-point scale): 5=81-100%, 4=61-80%, 3=41-60%, 2=21-40%, 1=0-20% damage
Procedure, shortened: as §1

[10] = tested on: Ipomoea hederacea (IPOHE); assay: Post-emergence Test, Ipomoea hederacea (IPOHE); set-up: key to percentage damage caused to the plant, IPOHE (five-point scale): 5=81-100%, 4=61-80%, 3=41-60%, 2=21-40%, 1=0-20% damage
Procedure, shortened: as §1

[11] = tested on: Amaranthus palmeri (AMAPA); assay: Post-emergence Test, Amaranthus palmeri (AMAPA); set-up: key: 5=81-100%, 4=61-80%, 3=41-60%, 2=21-40%, 1=0-20% damage
Procedure, shortened: as §1

[12] = tested on: Amaranthus retoflexus (AMARE); assay: Post-emergence Test, Amaranthus retoflexus (AMARE); set-up: key to percentage damage caused to the plant, AMARE (five-point scale): 5=81-100%, 4=61-80%, 3=41-60%, 2=21-40%, 1=0-20% damage
Procedure, shortened: as §1

Compound: CCn1c(Cn2nc(C(F)(F)F)cc2Cl)cc(=O)c(C(=O)O)c1-c1ccc(Cl)c(Cl)c1 [Compound 169, 6-[[5-chloro-3-(trifluoromethyl)pyrazol-1-yl]methyl]-2-(3,4-dichlorophenyl)-1-ethyl-4-oxo-pyridine-3-carboxylic acid]
- Pre-emergence Test SETFA, percentage damage caused to the plant (five-point scale) (Setaria faberi (SETFA) [1]; 250 g/Ha (*)): 5 (5=81-100%)
- Pre-emergence Test ECHCG, percentage damage caused to the plant (five-point scale) ([2]; 250 g/Ha (*)): 4 (4=61-80%)
- Pre-emergence Test ZEAMX, percentage damage caused to the plant (five-point scale) (Zea mays (ZEAMX) [3]; 250 g/Ha (*)): 0
- Pre-emergence Test IPOHE, percentage damage caused to the plant (five-point scale) ([4]; 250 g/Ha (*)): 1 (1=0-20%)
- Pre-emergence Test AMAPA, percentage damage caused to the plant (five-point scale) ([5]; 250 g/Ha (*)): 1 (1=0-20%)
- Pre-emergence Test AMARE, percentage damage caused to the plant (five-point scale) ([6]; 250 g/Ha (*)): 1 (1=0-20%)
- percentage damage caused to the plant, SETFA (five-point scale) (Setaria faberi (SETFA) [7]; 250 g/Ha): 4 (4=61-80%)
- percentage damage caused to the plant, ECHCG (five-point scale) ([8]; 250 g/Ha): 3 (3=41-60%)
- percentage damage caused to the plant, ZEAMX (five-point scale) (Zea mays (ZEAMX) [9]; 250 g/Ha): 4 (4=61-80%)
- percentage damage caused to the plant, IPOHE (five-point scale) ([10]; 250 g/Ha): 4 (4=61-80%)
- percentage damage caused to the plant, AMAPA (five-point scale) ([11]; 250 g/Ha): 3 (3=41-60%)
- percentage damage caused to the plant, AMARE (five-point scale) ([12]; 250 g/Ha): 3 (3=41-60%)

Compound: COCCn1c(Cn2ccc(C(F)(F)F)n2)cc(=O)c(C(=O)O)c1-c1ccc(Cl)c(Cl)c1 [Compound 170, 2-(3,4-dichlorophenyl)-1-(2-methoxyethyl)-4-oxo-6-[[3-(trifluoromethyl)pyrazol-1-yl]methyl]pyridine-3-carboxylic acid]
- Pre-emergence Test SETFA, percentage damage caused to the plant (five-point scale) (Setaria faberi (SETFA) [1]; 1000 g/ha): 4 (4=61-80%)
- Pre-emergence Test ECHCG, percentage damage caused to the plant (five-point scale) ([2]; 1000 g/ha): 3 (3=41-60%)
- Pre-emergence Test ZEAMX, percentage damage caused to the plant (five-point scale) (Zea mays (ZEAMX) [3]; 1000 g/ha): 0
- Pre-emergence Test IPOHE, percentage damage caused to the plant (five-point scale) ([4]; 1000 g/ha): 2 (2=21-40%)
- Pre-emergence Test AMAPA, percentage damage caused to the plant (five-point scale) ([5]; 1000 g/ha): 0
- Pre-emergence Test AMARE, percentage damage caused to the plant (five-point scale) ([6]; 1000 g/ha): 0
- percentage damage caused to the plant, SETFA (five-point scale) (Setaria faberi (SETFA) [7]; 250 g/Ha): 3 (3=41-60%)
- percentage damage caused to the plant, SETFA (five-point scale) (Setaria faberi (SETFA) [7]; 1000 g/ha): 4 (4=61-80%)
- percentage damage caused to the plant, ECHCG (five-point scale) ([8]; 250 g/Ha): 3 (3=41-60%)
- percentage damage caused to the plant, ECHCG (five-point scale) ([8]; 1000 g/ha): 4 (4=61-80%)
- percentage damage caused to the plant, ZEAMX (five-point scale) (Zea mays (ZEAMX) [9]; 250 g/Ha): 0
- percentage damage caused to the plant, ZEAMX (five-point scale) (Zea mays (ZEAMX) [9]; 1000 g/ha): 1 (1=0-20%)
- percentage damage caused to the plant, IPOHE (five-point scale) ([10]; 250 g/Ha): 3 (3=41-60%)
- percentage damage caused to the plant, IPOHE (five-point scale) ([10]; 1000 g/ha): 3 (3=41-60%)
- percentage damage caused to the plant, AMAPA (five-point scale) ([11]; 250 g/Ha): 0
- percentage damage caused to the plant, AMAPA (five-point scale) ([11]; 1000 g/ha): 1 (1=0-20%)
- percentage damage caused to the plant, AMARE (five-point scale) ([12]; 250 g/Ha): 0
- percentage damage caused to the plant, AMARE (five-point scale) ([12]; 1000 g/ha): 1 (1=0-20%)

Compound: COCCn1c(Cn2ccc(Cl)n2)cc(=O)c(C(=O)O)c1-c1ccc(Cl)c(Cl)c1 [Compound 171, 6-[(3-chloropyrazol-1-yl)methyl]-2-(3,4-dichlorophenyl)-1-(2-methoxyethyl)-4-oxo-pyridine-3-carboxylic acid]
- Pre-emergence Test SETFA, percentage damage caused to the plant (five-point scale) (Setaria faberi (SETFA) [1]; 1000 g/ha): 4 (4=61-80%)
- Pre-emergence Test ECHCG, percentage damage caused to the plant (five-point scale) ([2]; 1000 g/ha): 1 (1=0-20%)
- Pre-emergence Test ZEAMX, percentage damage caused to the plant (five-point scale) (Zea mays (ZEAMX) [3]; 1000 g/ha): 1 (1=0-20%)
- Pre-emergence Test IPOHE, percentage damage caused to the plant (five-point scale) ([4]; 1000 g/ha): 0
- Pre-emergence Test AMAPA, percentage damage caused to the plant (five-point scale) ([5]; 1000 g/ha): 0
- Pre-emergence Test AMARE, percentage damage caused to the plant (five-point scale) ([6]; 1000 g/ha): 1 (1=0-20%)
- percentage damage caused to the plant, SETFA (five-point scale) (Setaria faberi (SETFA) [7]; 250 g/Ha): 0
- percentage damage caused to the plant, SETFA (five-point scale) (Setaria faberi (SETFA) [7]; 1000 g/ha): 3 (3=41-60%)
- percentage damage caused to the plant, ECHCG (five-point scale) ([8]; 250 g/Ha): 1 (1=0-20%)
- percentage damage caused to the plant, ECHCG (five-point scale) ([8]; 1000 g/ha): 3 (3=41-60%)
- percentage damage caused to the plant, ZEAMX (five-point scale) (Zea mays (ZEAMX) [9]; 250 g/Ha): 1 (1=0-20%)
- percentage damage caused to the plant, ZEAMX (five-point scale) (Zea mays (ZEAMX) [9]; 1000 g/ha): 1 (1=0-20%)
- percentage damage caused to the plant, IPOHE (five-point scale) ([10]; 250 g/Ha): 1 (1=0-20%)
- percentage damage caused to the plant, IPOHE (five-point scale) ([10]; 1000 g/ha): 1 (1=0-20%)
- percentage damage caused to the plant, AMAPA (five-point scale) ([11]; 250 g/Ha): 0
- percentage damage caused to the plant, AMAPA (five-point scale) ([11]; 1000 g/ha): 0
- percentage damage caused to the plant, AMARE (five-point scale) ([12]; 250 g/Ha): 0
- percentage damage caused to the plant, AMARE (five-point scale) ([12]; 1000 g/ha): 0

Compound: CCOCc1ccn(Cc2cc(=O)c(C(=O)O)c(-c3ccc(Cl)c(Cl)c3)n2CC)n1 [Compound 173, 2-(3,4-dichlorophenyl)-6-[[3-(ethoxymethyl)pyrazol-1-yl]methyl]-1-ethyl-4-oxo-pyridine-3-carboxylic acid]
- Pre-emergence Test SETFA, percentage damage caused to the plant (five-point scale) (Setaria faberi (SETFA) [1]; 1000 g/ha): 4 (4=61-80%)
- Pre-emergence Test ECHCG, percentage damage caused to the plant (five-point scale) ([2]; 1000 g/ha): 4 (4=61-80%)
- Pre-emergence Test ZEAMX, percentage damage caused to the plant (five-point scale) (Zea mays (ZEAMX) [3]; 1000 g/ha): 0
- Pre-emergence Test IPOHE, percentage damage caused to the plant (five-point scale) ([4]; 1000 g/ha): 3 (3=41-60%)
- Pre-emergence Test AMAPA, percentage damage caused to the plant (five-point scale) ([5]; 1000 g/ha): 0
- Pre-emergence Test AMARE, percentage damage caused to the plant (five-point scale) ([6]; 1000 g/ha): 0
- percentage damage caused to the plant, SETFA (five-point scale) (Setaria faberi (SETFA) [7]; 250 g/Ha): 1 (1=0-20%)
- percentage damage caused to the plant, SETFA (five-point scale) (Setaria faberi (SETFA) [7]; 1000 g/ha): 4 (4=61-80%)
- percentage damage caused to the plant, ECHCG (five-point scale) ([8]; 250 g/Ha): 2 (2=21-40%)
- percentage damage caused to the plant, ECHCG (five-point scale) ([8]; 1000 g/ha): 4 (4=61-80%)
- percentage damage caused to the plant, ZEAMX (five-point scale) (Zea mays (ZEAMX) [9]; 250 g/Ha): 0
- percentage damage caused to the plant, ZEAMX (five-point scale) (Zea mays (ZEAMX) [9]; 1000 g/ha): 1 (1=0-20%)
- percentage damage caused to the plant, IPOHE (five-point scale) ([10]; 250 g/Ha): 1 (1=0-20%)
- percentage damage caused to the plant, IPOHE (five-point scale) ([10]; 1000 g/ha): 2 (2=21-40%)
- percentage damage caused to the plant, AMAPA (five-point scale) ([11]; 250 g/Ha): 0
- percentage damage caused to the plant, AMAPA (five-point scale) ([11]; 1000 g/ha): 1 (1=0-20%)
- percentage damage caused to the plant, AMARE (five-point scale) ([12]; 250 g/Ha): 0
- percentage damage caused to the plant, AMARE (five-point scale) ([12]; 1000 g/ha): 1 (1=0-20%)

Compound: CCn1c(Cn2ccc(CC#N)n2)cc(=O)c(C(=O)O)c1-c1ccc(Cl)c(Cl)c1 [Compound 175, 6-[[3-(cyanomethyl)pyrazol-1-yl]methyl]-2-(3,4-dichlorophenyl)-1-ethyl-4-oxo-pyridine-3-carboxylic acid]
- Pre-emergence Test SETFA, percentage damage caused to the plant (five-point scale) (Setaria faberi (SETFA) [1]; 1000 g/ha): 3 (3=41-60%)
- Pre-emergence Test ECHCG, percentage damage caused to the plant (five-point scale) ([2]; 1000 g/ha): 1 (1=0-20%)
- Pre-emergence Test ZEAMX, percentage damage caused to the plant (five-point scale) (Zea mays (ZEAMX) [3]; 1000 g/ha): 0
- Pre-emergence Test IPOHE, percentage damage caused to the plant (five-point scale) ([4]; 1000 g/ha): 1 (1=0-20%)
- Pre-emergence Test AMAPA, percentage damage caused to the plant (five-point scale) ([5]; 1000 g/ha): 0
- Pre-emergence Test AMARE, percentage damage caused to the plant (five-point scale) ([6]; 1000 g/ha): 0
- percentage damage caused to the plant, SETFA (five-point scale) (Setaria faberi (SETFA) [7]; 250 g/Ha): 0
- percentage damage caused to the plant, SETFA (five-point scale) (Setaria faberi (SETFA) [7]; 1000 g/ha): 3 (3=41-60%)
- percentage damage caused to the plant, ECHCG (five-point scale) ([8]; 250 g/Ha): 1 (1=0-20%)
- percentage damage caused to the plant, ECHCG (five-point scale) ([8]; 1000 g/ha): 2 (2=21-40%)
- percentage damage caused to the plant, ZEAMX (five-point scale) (Zea mays (ZEAMX) [9]; 250 g/Ha): 0
- percentage damage caused to the plant, ZEAMX (five-point scale) (Zea mays (ZEAMX) [9]; 1000 g/ha): 1 (1=0-20%)
- percentage damage caused to the plant, IPOHE (five-point scale) ([10]; 250 g/Ha): 1 (1=0-20%)
- percentage damage caused to the plant, IPOHE (five-point scale) ([10]; 1000 g/ha): 2 (2=21-40%)
- percentage damage caused to the plant, AMAPA (five-point scale) ([11]; 250 g/Ha): 0
- percentage damage caused to the plant, AMAPA (five-point scale) ([11]; 1000 g/ha): 0
- percentage damage caused to the plant, AMARE (five-point scale) ([12]; 250 g/Ha): 0
- percentage damage caused to the plant, AMARE (five-point scale) ([12]; 1000 g/ha): 0
